The subject of test [1] is EML4-ALK (EA WT). The settings on record: […] h, […] °C, no IL-3; ALK-dependent cell growth; stated gain.
In test [2] the test system is T1, NPM-ALK (NA WT).
T1 construct: NPM-ALK fusion from t(2;5)(p23;q35), pcDNA3.0, stably expressed in murine Ba/F3 cells (IL-3-independent); single fused polypeptide NPM1 N-terminal part + ALK C-terminal part with kinase domain; with Nucleophosmin
Put plainly: Ba/F3 proliferation, [3H]-thymidine incorporation. Format: cell-based, Homo sapiens. Particulars: […] °C, no IL-3, ALK-dependent cell growth, stated gain.

For test [3], the system named is T1, NPM-ALK (NA WT). Put plainly: Ba/F3 proliferation, [3H]-thymidine incorporation. It is filed as cell-based, Homo sapiens. Particulars: […] °C, no IL-3, ALK-dependent cell growth, parental Ba/F3 as control. (Uptake of a labelled nucleoside into DNA is a usual measure of proliferation.)
For test [4], the system named is T2, EML4-ALK (EA WT).
T2 construct: EML4-ALK fusion (EML4 exon 6 to ALK exon 20) in pCDH-CMV-MCS-EF1-Puro, stably expressed in murine Ba/F3 cells (IL-3-independent); single fused polypeptide; with Echinoderm microtubule-associated protein-like 4
Description: Ba/F3 proliferation, [3H]-thymidine incorporation. It is filed as cell-based, Homo sapiens. Particulars: […] °C, no IL-3, ALK-dependent cell growth, parental Ba/F3 as control.

In test [5] the test system is NPM-ALK (NA WT). The settings on record: […] h, […] °C, no IL-3; ALK-dependent cell growth; stated gain. From the text: Ba/F3 proliferation, [3H]-thymidine incorporation on NPM-ALK (NA WT)
For test [6], the system named is T1, NPM-ALK (NA WT). Put plainly: Ba/F3 proliferation, [3H]-thymidine incorporation. Format: cell-based, Homo sapiens. Particulars: […] °C, no IL-3, ALK-dependent cell growth, parental Ba/F3 as control. The source holds these as a separate data set.
Test [7] relates to T2, EML4-ALK (EA WT). Description: Ba/F3 proliferation, [3H]-thymidine incorporation. Format: cell-based, Homo sapiens. Particulars: […] °C, no IL-3, ALK-dependent cell growth, parental Ba/F3 as control. From the text:
Ba/F3 proliferation, [3H]-thymidine incorporation on EML4-ALK (EA WT)
The source holds these as a separate data set.

Molecules are shown by their SMILES.

For the compound `COc1cc(N2CCC(N3CCN(C)CC3)CC2)ccc1Nc1ncc(Cl)c(Nc2ccccc2P(C)(C)=O)n1` [AP26113], in the test with EML4-ALK (EA WT) [1], the “IC50 (μmol/L) / AP26113” value amounted to 0.021 µmol/L.
Turning to `COc1cc(N2CCC(N3CCN(C)CC3)CC2)ccc1Nc1ncnc(Nc2ccccc2S(=O)(=O)C(C)C)n1` [ASP3026], the figures for the “IC50 (μmol/L) / ASP3026” value in the test with NPM-ALK (NA WT) [2], with NPM-ALK (NA WT) [3] and with EML4-ALK (EA WT) [4] were 2.763 µmol/L, 0.084 µmol/L and 0.056 µmol/L, respectively.
`Cc1cc(Nc2ncc(Cl)c(Nc3ccccc3S(=O)(=O)C(C)C)n2)c(OC(C)C)cc1C1CCNCC1` [ceritinib]: the “IC50 (μmol/L) / Ceritinib” value in the test on NPM-ALK (NA WT) [5] was found to be […]; in the test with EML4-ALK (EA WT) [7] it was […]. Also, the “IC50 (μmol/L) / Alectinib” value with NPM-ALK (NA WT) [6] amounted to […].

The record behind these values is publication PMC4529334, “Activity of second-generation ALK inhibitors against crizotinib-resistant mutants in an NPM-ALK model compared to EML4-ALK” (Cancer Medicine, 2015).
